Experiments:
Format in all cases: cell-based
[1] = Viability evaluation (MTS/PMS) of replicon RNA-transfected Huh7 cells, Example 2; conditions: human, highest tested concentration 50 µM
Source text: Obtained values are expressed as percent inhibition of untreated RNA-transfected control condition.

[2] = system: rat HEV replicon LAB350/luc; assay: Antiviral activity against rat HEV replicon LAB350/luc in Huh7 cells (Gaussia luciferase); conditions: Huh-7, 72 h, 3 days, 50% reduction in Luc signal, two experiments
[3] = system: HEV Genotype 3 replicon Kernow-C1 p6/luc; assay: Antiviral activity against HEV Genotype 3 replicon Kernow-C1 p6/luc in Huh7 cells (Gaussia luciferase); conditions: Huh-7, 96 h, read-out: relative EC50

Compound | CC50 [1] [µM] | EC50 [2] [µM] | EC50 [3] [µM]
CCOc1nc(N)nc2c1ncn2[C@@H]1O[C@](F)(COP(=O)(N[C@@H](C)C(=O)OC2CCCCC2)Oc2ccccc2)[C@@H](O)[C@@]1(C)O (stereo partly shown) [Compound 2] | > 50 |  | 
CCOc1nc(N)nc2c1ncn2[C@@H]1O[C@](F)(COP(=O)(OCOC(=O)OC(C)C)OCOC(=O)OC(C)C)[C@@H](O)[C@@]1(C)F [Compound 3] | > 50 |  | 
CCOc1nc(N)nc2c1ncn2[C@@H]1O[C@]2(F)CO[P@@](=O)(NCC(=O)OC(C)C)O[C@H]2[C@@]1(C)F [Compound 5] | > 50 | 0.046 | 0.022
CCOc1nc(N)nc2c1ncn2[C@@H]1O[C@](F)(COP(=O)(OCOC(=O)OC(C)C)OCOC(=O)OC(C)C)[C@@H](O)[C@@]1(C)O [Compound 6] | > 50 |  | 
CC(C)OC(=O)[C@H](C)N[P@](=O)(OC[C@@]1(F)O[C@@H](n2ccc(=O)[nH]c2=O)[C@](C)(O)[C@@H]1O)Oc1ccccc1 [Compound 7] | > 50 |  | 
CCOc1nc(N)nc2c1ncn2[C@@H]1O[C@]2(F)CO[P@@](=O)(N[C@H](C)C(=O)OC(C)C)O[C@H]2[C@@]1(C)F [Compound 8] | > 50 |  | 
CC(C)OC(=O)OCOP(=O)(OCOC(=O)OC(C)C)OC[C@@]1(F)O[C@@H](n2ccc(=O)[nH]c2=O)[C@](C)(O)[C@@H]1O [Compound 9] | > 50 |  | 
CC(C)OC(=O)OCOP(=O)(OCOC(=O)OC(C)C)OC[C@@]1(F)O[C@@H](n2ccc(=O)[nH]c2=O)[C@](C)(F)[C@@H]1O [Compound 11] | > 50 |  | 
